This is an account of results in ChEMBL document CHEMBL5523703, “Modulators for palmitoylation of proteins and small molecules” (Eur J Med Chem, 2024).

The IC50 is the concentration that inhibits the measured activity by half. As usually defined, the Ki is the equilibrium dissociation constant of an inhibitor or competing ligand from its target. As usually defined, the half-life is the time in which the quantity being followed falls by half. By inhibition is commonly meant the relative decrease from the control value, in per cent. Low values mean little suppression, high ones strong suppression.

For data set [1], the target named is Carnitine O-palmitoyltransferase 2, mitochondrial (Rattus norvegicus, UniProt P18886). Briefly: Inhibition of rat CPT2.
Data set [2] concerns the target T1, Carnitine O-palmitoyltransferase 1, muscle isoform (Homo sapiens, UniProt Q92523).
T1 sequence (Q92523 whole entry): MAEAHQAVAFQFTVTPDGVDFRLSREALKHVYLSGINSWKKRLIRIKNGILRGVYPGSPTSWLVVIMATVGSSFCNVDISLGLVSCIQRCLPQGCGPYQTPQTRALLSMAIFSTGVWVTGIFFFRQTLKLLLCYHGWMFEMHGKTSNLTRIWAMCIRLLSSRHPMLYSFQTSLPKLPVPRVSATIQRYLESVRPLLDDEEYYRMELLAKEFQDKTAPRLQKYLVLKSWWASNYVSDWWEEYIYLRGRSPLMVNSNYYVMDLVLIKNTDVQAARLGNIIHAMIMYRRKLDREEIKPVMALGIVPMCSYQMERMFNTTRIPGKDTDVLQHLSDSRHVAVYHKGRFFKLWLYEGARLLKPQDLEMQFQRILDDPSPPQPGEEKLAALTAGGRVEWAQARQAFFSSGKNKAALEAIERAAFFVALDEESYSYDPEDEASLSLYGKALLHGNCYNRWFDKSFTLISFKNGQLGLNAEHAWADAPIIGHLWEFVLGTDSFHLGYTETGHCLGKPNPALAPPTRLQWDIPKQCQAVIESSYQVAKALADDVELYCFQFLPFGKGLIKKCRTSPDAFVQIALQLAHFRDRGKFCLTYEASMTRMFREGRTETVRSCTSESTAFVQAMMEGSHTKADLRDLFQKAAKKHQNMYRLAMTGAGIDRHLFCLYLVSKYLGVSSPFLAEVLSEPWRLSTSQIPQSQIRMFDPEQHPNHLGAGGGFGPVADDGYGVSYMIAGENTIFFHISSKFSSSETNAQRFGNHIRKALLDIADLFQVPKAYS
The data set can be described thus: Inhibition of CPT1B (unknown origin) in KB cells. The format is cell-based.

Data set [3] concerns the target T2, Carnitine O-palmitoyltransferase 1, liver isoform (Rattus norvegicus, UniProt P32198).
T2 sequence (P32198 whole entry): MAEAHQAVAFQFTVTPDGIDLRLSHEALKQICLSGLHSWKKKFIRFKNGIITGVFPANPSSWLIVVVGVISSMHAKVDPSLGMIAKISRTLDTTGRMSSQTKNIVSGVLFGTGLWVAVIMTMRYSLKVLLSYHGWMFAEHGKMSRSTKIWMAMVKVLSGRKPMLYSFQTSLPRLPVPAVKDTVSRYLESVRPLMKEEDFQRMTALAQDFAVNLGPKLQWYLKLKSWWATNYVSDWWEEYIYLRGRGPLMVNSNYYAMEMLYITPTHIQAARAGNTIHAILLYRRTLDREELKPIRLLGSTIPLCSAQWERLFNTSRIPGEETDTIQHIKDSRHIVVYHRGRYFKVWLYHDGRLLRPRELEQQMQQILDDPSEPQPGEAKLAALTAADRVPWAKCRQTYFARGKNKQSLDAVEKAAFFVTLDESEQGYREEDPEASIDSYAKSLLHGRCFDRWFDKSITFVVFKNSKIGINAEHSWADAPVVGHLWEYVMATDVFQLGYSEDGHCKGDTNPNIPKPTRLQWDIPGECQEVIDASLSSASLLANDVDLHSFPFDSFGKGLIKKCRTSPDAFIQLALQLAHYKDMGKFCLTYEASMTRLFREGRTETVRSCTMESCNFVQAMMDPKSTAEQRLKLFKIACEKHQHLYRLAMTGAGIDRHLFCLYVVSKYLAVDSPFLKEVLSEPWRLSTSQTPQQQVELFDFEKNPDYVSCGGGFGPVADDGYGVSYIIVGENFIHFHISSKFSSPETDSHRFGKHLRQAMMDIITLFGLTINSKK
Briefly: Inhibition of rat hepatocytes CPT1A. The format is cell-based, Hepatocyte.

Data set [4] concerns LN-18. Briefly: Antitumor activity against human LN-18 cells assessed as reduction in cell growth incubated for 72 hrs in presence of sirtuins inhibitor by crystal violet staining based analysis. The format is functional. The conditions noted are these: LN-18, 72 h.
Data set [5] concerns the target Palmitoyltransferase ZDHHC9 (Homo sapiens, UniProt Q9Y397). Briefly: Binding affinity to ZDHHC9 (unknown origin) assessed as inhibition constant.
Data set [6] has as its target Transcriptional enhancer factor TEF-1 (Homo sapiens, UniProt P28347). The data set can be described thus: Inhibition of N-terminal 6His-tagged human TEAD1 YAP-binding domain (209 to 426 residues) expressed in Escherichia coli BL21 (DE3).
Data set [7] can be described thus: Inhibition of N-terminal 6His-tagged human TEAD1 YAP-binding domain (219 to 435 residues) expressed in Escherichia coli BL21 (DE3).
Data set [8] has as its target T3, Carnitine O-palmitoyltransferase 1, liver isoform (Homo sapiens, UniProt P50416).
T3 sequence (P50416 whole entry): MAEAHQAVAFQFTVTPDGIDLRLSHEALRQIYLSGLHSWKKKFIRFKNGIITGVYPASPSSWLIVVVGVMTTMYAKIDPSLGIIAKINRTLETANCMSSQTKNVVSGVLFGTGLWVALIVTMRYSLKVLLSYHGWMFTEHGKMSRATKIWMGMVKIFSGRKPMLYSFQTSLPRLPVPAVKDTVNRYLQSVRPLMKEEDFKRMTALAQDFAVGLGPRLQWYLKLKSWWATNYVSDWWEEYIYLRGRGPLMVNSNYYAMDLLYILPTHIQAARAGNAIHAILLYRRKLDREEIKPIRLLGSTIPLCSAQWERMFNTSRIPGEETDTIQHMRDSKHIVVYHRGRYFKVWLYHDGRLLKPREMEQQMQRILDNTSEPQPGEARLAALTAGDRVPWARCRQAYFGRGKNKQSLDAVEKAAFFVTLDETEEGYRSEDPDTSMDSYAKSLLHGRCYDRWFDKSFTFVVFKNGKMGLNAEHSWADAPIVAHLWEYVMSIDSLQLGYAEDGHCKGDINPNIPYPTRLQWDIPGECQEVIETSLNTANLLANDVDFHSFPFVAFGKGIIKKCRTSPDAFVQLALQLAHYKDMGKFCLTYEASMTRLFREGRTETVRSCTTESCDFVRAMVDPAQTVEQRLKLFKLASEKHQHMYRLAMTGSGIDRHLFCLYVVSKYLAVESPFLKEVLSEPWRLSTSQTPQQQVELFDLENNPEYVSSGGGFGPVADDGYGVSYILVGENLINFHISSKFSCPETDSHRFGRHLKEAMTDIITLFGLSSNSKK
The data set can be described thus: Inhibition of CPT1A (unknown origin).

Data set [9] deals with T1, Carnitine O-palmitoyltransferase 1, muscle isoform. The data set can be described thus: Inhibition of CPT1B (unknown origin).
The target of data set [10] is T3, Carnitine O-palmitoyltransferase 1, liver isoform. Briefly: Inhibition of CPT1 (unknown origin).
A short description of data set [11]: Half life in mouse by LC-MS/MS analysis. The format is ADME. The conditions noted are these: in vivo, route po.
Data set [12] is filed under the species Homo sapiens. The data set can be described thus: Inhibition of ZDHHC (unknown origin) at 20 uM relative to control.
Data set [13] has as its system MCF7. Briefly: Antiproliferative activity against human MCF7 cells assessed as reduction in cell growth measured after 72 hrs by MTT assay. The format is functional, cell-based. The conditions noted are these: MCF7, 72 h. (Formazan colour is commonly taken as a measure of viable cells.)
Data set [14] addresses T4, Protein-cysteine N-palmitoyltransferase HHAT (Homo sapiens, UniProt Q5VTY9). The data set can be described thus: Inhibition of HHAT (unknown origin).
Data set [15] can be described thus: Inhibition of SPT (unknown origin). On the set-up: species or system Homo sapiens.
Data set [16] in a line: Inhibition of SPT in mouse Neuro2a cells. The format is cell-based.
For data set [17], the species on record is Homo sapiens. The data set can be described thus: Binding affinity to ZDHHC (unknown origin) assessed as inactivation constant.
The target of data set [18] is T4, Protein-cysteine N-palmitoyltransferase HHAT. Briefly: Inhibition of His-tagged HHAT (unknown origin) transfected in HEK293FT cells. The format is cell-based.
Data set [19] concerns the target T2, Carnitine O-palmitoyltransferase 1, liver isoform. The data set can be described thus: Binding affinity to rat liver mitochondria CPT1 assessed as inhibition constant incubated for 3 to 6 mins by Liquid scintillation counting method.

T4 sequence (Q5VTY9 whole entry): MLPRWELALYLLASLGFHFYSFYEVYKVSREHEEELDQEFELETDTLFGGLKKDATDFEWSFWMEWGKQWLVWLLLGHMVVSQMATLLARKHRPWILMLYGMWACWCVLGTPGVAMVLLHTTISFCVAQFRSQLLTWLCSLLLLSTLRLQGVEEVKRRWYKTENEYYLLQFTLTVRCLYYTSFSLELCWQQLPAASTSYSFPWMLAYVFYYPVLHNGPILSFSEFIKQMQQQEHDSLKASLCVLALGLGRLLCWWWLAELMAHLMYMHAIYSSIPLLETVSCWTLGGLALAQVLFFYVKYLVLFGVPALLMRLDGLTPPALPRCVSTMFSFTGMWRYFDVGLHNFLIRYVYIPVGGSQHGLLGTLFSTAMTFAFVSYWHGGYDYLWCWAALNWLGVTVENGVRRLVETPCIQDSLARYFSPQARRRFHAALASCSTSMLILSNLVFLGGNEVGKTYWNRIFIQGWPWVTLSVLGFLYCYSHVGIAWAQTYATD
Chain of Carnitine O-palmitoyltransferase 2, mitochondrial (P18886 whole entry, canonical isoform): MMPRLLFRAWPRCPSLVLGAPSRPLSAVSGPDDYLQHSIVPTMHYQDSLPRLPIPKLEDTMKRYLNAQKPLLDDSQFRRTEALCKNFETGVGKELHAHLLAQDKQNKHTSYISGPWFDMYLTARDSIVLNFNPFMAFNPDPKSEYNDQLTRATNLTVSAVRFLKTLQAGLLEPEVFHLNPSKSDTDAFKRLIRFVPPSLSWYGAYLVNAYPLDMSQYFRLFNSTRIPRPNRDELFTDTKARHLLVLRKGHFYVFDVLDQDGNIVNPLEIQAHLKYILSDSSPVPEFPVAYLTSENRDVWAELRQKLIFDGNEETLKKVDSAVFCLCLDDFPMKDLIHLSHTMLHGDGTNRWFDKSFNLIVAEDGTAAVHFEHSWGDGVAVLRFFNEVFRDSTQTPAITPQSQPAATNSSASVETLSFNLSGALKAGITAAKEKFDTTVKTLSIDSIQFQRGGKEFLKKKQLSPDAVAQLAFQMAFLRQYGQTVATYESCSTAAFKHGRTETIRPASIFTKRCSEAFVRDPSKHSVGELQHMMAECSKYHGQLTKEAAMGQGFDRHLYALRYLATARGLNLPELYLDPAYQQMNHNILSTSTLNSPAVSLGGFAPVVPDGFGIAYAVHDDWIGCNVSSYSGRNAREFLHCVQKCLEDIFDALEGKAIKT
Chain of Palmitoyltransferase ZDHHC9 (Q9Y397 whole entry, the tested form may be a part): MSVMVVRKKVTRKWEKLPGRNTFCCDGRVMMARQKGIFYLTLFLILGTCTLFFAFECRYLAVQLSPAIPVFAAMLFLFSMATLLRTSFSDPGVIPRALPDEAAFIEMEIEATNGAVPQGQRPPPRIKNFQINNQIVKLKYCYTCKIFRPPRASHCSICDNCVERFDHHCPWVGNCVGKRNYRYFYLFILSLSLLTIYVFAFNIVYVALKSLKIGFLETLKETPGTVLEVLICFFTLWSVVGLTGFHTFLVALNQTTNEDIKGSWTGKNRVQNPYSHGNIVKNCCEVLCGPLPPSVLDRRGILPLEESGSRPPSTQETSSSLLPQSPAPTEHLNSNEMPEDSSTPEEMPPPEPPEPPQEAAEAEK
Chain of Transcriptional enhancer factor TEF-1 (P28347 whole entry, the tested form may be a part): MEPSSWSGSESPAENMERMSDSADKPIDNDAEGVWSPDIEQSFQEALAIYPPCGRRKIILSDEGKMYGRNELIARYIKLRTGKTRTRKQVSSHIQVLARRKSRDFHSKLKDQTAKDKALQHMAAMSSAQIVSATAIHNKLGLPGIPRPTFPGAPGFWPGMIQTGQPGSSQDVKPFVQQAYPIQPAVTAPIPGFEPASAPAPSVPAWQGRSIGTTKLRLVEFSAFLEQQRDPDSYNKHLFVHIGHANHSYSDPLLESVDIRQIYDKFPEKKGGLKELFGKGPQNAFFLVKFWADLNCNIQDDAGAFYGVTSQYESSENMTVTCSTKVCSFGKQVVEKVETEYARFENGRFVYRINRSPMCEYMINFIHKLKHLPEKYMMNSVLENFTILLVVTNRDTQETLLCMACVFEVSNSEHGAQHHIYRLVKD

With `C1CCC(C(CC2CCCCN2)C2CCCCC2)CC1` (configuration not stated) [PERHEXILINE], half-maximal inhibition in data set [1] (IC50) required 77000 nM.

Turning to `COc1ccc(Cl)cc1S(=O)(=O)N1CC(C(=O)O)Oc2ccc(C(=O)Nc3cccc(F)c3)cc21` (configuration not stated), the results for the 50% inhibitory concentration (IC50) in data set [2] and in [3] were 16 nM and 1340 nM, respectively.

On to `CC(C)(C)NC1CCN(c2cc(NCc3ccc(Cl)cc3)nc3ccccc23)CC1` [EZURPIMTROSTAT], for which, in data set [4], the IC50 came out at 220 nM.

Regarding `CC(C)Cc1ccc(C(C)CN2CCN(CCCC[C@H]3CNCCN3CCc3cc(C(F)(F)F)cc(C(F)(F)F)c3)C[C@@H]2Cc2ccc(O)cc2)cc1` (some centres not stated), in data set [5], the Ki was found to be 66000 nM.

Consider `C=CC(=O)N1CCC(CCOc2ccccc2)CC1`, for which the IC50 stood at 610 nM in data set [6] and 580 nM in data set [7].

Take `CCCCCCOc1cccc(OCCCCNC(=O)N[C@H](CC(=O)[O-])C[N+](C)(C)C)c1`: the figures for the 50% inhibitory concentration (IC50) in [8] and in [9] were 130 nM and 5440 nM, respectively.

`N[C@H](C(=O)O)c1ccc(O)cc1` [OXFENICINE]: the results for the IC50 in data set [10] and in data set [1] were 11000 nM and 79000 nM, respectively.

`CNS(=O)(=O)c1ccc(Nc2ccc(C(F)(F)F)cc2)c(-c2cn(C)cn2)c1`: in data set [11], the half-life is 13.2 h.

Take `C=CC(=O)NCc1ccc(OC(=O)c2cccc(Oc3ccccc3)c2)cc1`: the inhibition in [12] came out at 89.5%. Further, the IC50 in data set [13] was 50000 nM.

`CCC(C)CNCC(=O)N1CCc2sccc2C1c1cccc(C)c1` (configuration not stated) yielded a 50% inhibitory concentration (IC50) in data set [14] of 460 nM.

`CNC(=O)c1ccc2c(c1)CC(=O)N2C1CCN(CC(=O)N2CC3CCCC3C2)CC1` (configuration not stated): the IC50 in data set [15] worked out at 27.3 nM; in data set [16] it was 9500 nM.

Regarding `N[C@H]1CONC1=O`, in data set [17], the Kinact is 0.83 M⁻¹ s⁻¹.

As to `CC(C)Cc1ccc(C(C)CN2CCNC[C@@H]2CCCCN2CCN(CC(C)c3ccc(CC(C)C)cc3)[C@@H](Cc3ccc(O)cc3)C2)cc1` (some centres not stated), in [5], the inhibitory constant (Ki) is 72000 nM.

In the case of `C=CC(=O)N1CCCN(CCCOCc2ccccc2)C1`, the concentration for half-maximal inhibition (IC50) in data set [7] amounted to 160 nM.

The compound `C=CCNCC(=O)N1CCc2sccc2C1COc1ccc(Cl)c(C)c1` (configuration not stated) came in with an IC50 in data set [18] of 180 nM.

`CCCCCCCCCCCCCCCC1(O)C[C@H](CC(=O)[O-])C[N+](C)(C)C1` (single isomer, unassigned): the inhibition constant (Ki) in [19] was 4200 nM.
